Consider 31 compounds from US10703733B2, “MCL-1 inhibitors” (Gilead Sciences, Inc., priority 2018, dated 2020).

For the first test, the target named is MCL-1/Bim interaction (recombinant human MCL-1 protein, residues 171-327; biotinylated human Bim peptide, residues 51-76) (Homo sapiens (Human), UniProt Q07820). Description: MCL-1/Bim Binding AlphaLISA Assay. To be noted: 0.0625 nM 6xHis-Mcl-1 (171-327), 0.0625 nM biotinylated-Bim peptide. The procedure: MCL-1/Bim Binding AlphaLISA Assay.
MCL-1/Bim interaction (recombinant human MCL-1 protein, residues 171-327; biotinylated human Bim peptide, residues 51-76), sequence (Q07820 171-327): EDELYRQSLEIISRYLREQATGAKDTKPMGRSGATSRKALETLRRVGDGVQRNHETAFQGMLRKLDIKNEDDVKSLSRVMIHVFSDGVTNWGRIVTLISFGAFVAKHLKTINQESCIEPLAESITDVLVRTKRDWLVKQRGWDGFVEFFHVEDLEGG
Inhibition of the MCL-1 and Bim interaction was measured in the following AlphaLISA assay.
Recombinant human MCL-1 protein (C-terminal 6×His Tagged Mcl-1 containing residues 171-327) was generated at Gilead Sciences, Inc. (Foster City, Calif.). A biotinylated peptide derived from human Bim (residues 51-76) was purchased from CPC Scientific (Sunnyvale, Calif.). (CPC 834113). AlphaLISA anti-6His-acceptor beads (AL128R), AlphaScreen Streptavidin donor beads (6760002B), and Proxiplate-384 Plus (6008289) were purchased from PerkinElmer.
The AlphaLISA assay was performed in a 384-well Proxiplate in a total volume of […]. The reaction mixture contained 0.0625 nM 6×His-Mcl-1 (171-327), 0.0625 nM biotinylated-Bim peptide, 10 μg/mL AlphaLISA anti-6×His-AlphaLISA acceptor beads, […] AlphaScreen streptavidin donor beads, and serially diluted test compounds in the binding buffer (20 mM Hepes, pH 7.5 (Teknova H1035); 150 mM NaCl (Promega V4221); 0.002% Brij 35 (Thermo Scientific 20150); 1 mM Dithiothreitol (DTT) Solution (Affymetrix 70726); 0.01% BSA (BioLabs B9000S)). 1,000×test compounds were pre-spotted onto 384-well Proxiplate (Labcyte Echo) by Echo 555 Liquid Handler (Labcyte Inc., San Jose, Calif.) followed by incubation of 5 μl Mcl-1(171-327) for 1 hour. Then 5 μL Bim (51-76) was added and incubated for 2 hours. Five μL AlphaLISA anti-6His-AlphaLISA acceptor beads were then added for 1 hour followed by addition of 5 μL AlphaScreen streptavidin donor beads for 1 hour. The reaction plates were then read on an Envision multimode reader (PerkinElmer) using AlphaScreen settings. […] Percent inhibition was calculated as shown below: % Inhibition=100%*(Well−Neg)/(Pos−Neg) Neg: negative control, DMSO Pos: positive control, no Mcl-1 protein, no biotinylated-Bim peptide
A general note: Bead proximity is the source of the signal in Alpha formats.
In the case of `COC1CCCn2cc(C(=O)N[S@@]3(=O)=NC(=O)c4ccc5c(c4)N(C[C@@H]4CC[C@H]4[C@@H](OC)/C=C/C[C@H](C)C3)C[C@@]3(CCCc4cc(Cl)ccc43)CO5)cc2C1` (stereo partly shown) [Example 190], the IC50 is 0.055 nM.
The same measure, in the same setting: next, `COC[C@H]1Cn2cc(C(=O)N[S@@]3(=O)=NC(=O)c4ccc5c(c4)N(C[C@@H]4CC[C@H]4[C@@H](OC)/C=C/C[C@H](C)[C@H]3C)C[C@@]3(CCCc4cc(Cl)ccc43)CO5)cc2CO1` [Example 215]: 0.203 nM; `COc1nn(C)cc1C(=O)N[S@@]1(=O)=NC(=O)c2ccc3c(c2)N(C[C@@H]2CC[C@H]2[C@@H](OC)/C=C/[C@H](O)[C@H](C)C1)C[C@@]1(CCCc2cc(Cl)ccc21)CO3` [Example 279]: 0.041 nM.
Same read-out and setting: next, `CCn1cc(C(=O)N[S@@]2(=O)=NC(=O)c3ccc4c(c3)N(C[C@@H]3CC[C@H]3[C@@H](OC)/C=C/CCC2)C[C@@]2(CCCc3cc(Cl)ccc32)CO4)cn1` [Example 104]: 0.1 nM; `COc1nn(C)cc1C(=O)N[S@@]1(=O)=NC(=O)c2ccc3c(c2)N(C[C@@H]2CC[C@H]2[C@@H](OC)/C=C/C[C@H](C)C1)C[C@@]1(CCCc2cc(Cl)ccc21)CO3` [Example 154]: 0.05 nM.
`CO[C@H]1/C=C/C[C@H](C)C[S@](N)(=O)=NC(=O)c2ccc3c(c2)N(C[C@@H]2CC[C@H]21)C[C@@]1(CCCc2cc(Cl)ccc21)CO3` (single isomer, unassigned) [Example 109]: the IC50 came out at 10.6 nM.
Same read-out and setting: the result for `CO[C@H]1/C=C/C[C@H](C)C[S@@](=O)(NC(=O)c2cc(CN(C)C3CCOCC3)n(C)c2)=NC(=O)c2ccc3c(c2)N(C[C@@H]2CC[C@H]21)C[C@@]1(CCCc2cc(Cl)ccc21)CO3` [Example 241] reads 0.087 nM.
`CO[C@H]1/C=C/C[C@H](C)C[S@@](=O)(NC(=O)c2cnn(C3CC3)c2)=NC(=O)c2ccc3c(c2)N(C[C@@H]2CC[C@H]21)C[C@@]1(CCCc2cc(Cl)ccc21)CO3` [Example 151]: the IC50 was determined as 0.036 nM.
Same read-out and setting: the result for `CCOc1nn(C)cc1C(=O)N[S@@]1(=O)=NC(=O)c2ccc3c(c2)N(C[C@@H]2CC[C@H]2[C@@H](OC)/C=C/C[C@H](C)C1)C[C@@]1(CCCc2cc(Cl)ccc21)CO3` [Example 194] reads 0.03 nM; that for `C[C@@H]1[C@@H](C)C/C=C/[C@H](O)[C@@H]2CC[C@H]2CN2C[C@@]3(CCCc4cc(Cl)ccc43)COc3ccc(cc32)C(=O)N=[S@]1(=O)NC(=O)c1cc2n(c1)CC1(COC1)OC2` [Example 239], 0.042 nM.
Regarding `COCCOc1nn(C)cc1C(=O)N[S@@]1(=O)=NC(=O)c2ccc3c(c2)N(C[C@@H]2CC[C@H]2[C@@H](OC)/C=C/C[C@H](C)C1)C[C@@]1(CCCc2cc(Cl)ccc21)CO3` [Example 216], the IC50 turned out to be 0.196 nM.
As to `CO[C@H]1/C=C/C[C@H](C)C[S@@](=O)(NC(=O)N[C@H]2C[C@@](C)(OC)C2)=NC(=O)c2ccc3c(c2)N(C[C@@H]2CC[C@H]21)C[C@@]1(CCCc2cc(Cl)ccc21)CO3` [Example 193], the IC50 came to 0.046 nM.
The same measure, in the same setting: next, `CO[C@H]1/C=C/C[C@H](C)C[S@@](=O)(NC(=O)NCC2CC2)=NC(=O)c2ccc3c(c2)N(C[C@@H]2CC[C@H]21)C[C@@]1(CCCc2cc(Cl)ccc21)CN3` [Example 107]: 0.1 nM.
The same measure, in the same setting: the result for `C[C@@H]1[C@@H](C)C/C=C/[C@H](O)[C@@H]2CC[C@H]2CN2C[C@@]3(CCCc4cc(Cl)ccc43)COc3ccc(cc32)C(=O)N=[S@]1(=O)NC(=O)N[C@@H]1C[C@H]1C(F)F` [Example 260] reads 0.061 nM.
The same measure, in the same setting: the result for `CO[C@H]1/C=C/CCC[S@@](=O)(NC(=O)c2cnn(C)c2)=NC(=O)c2ccc3c(c2)N(C[C@@H]2CC[C@H]21)C[C@@]1(CCCc2cc(Cl)ccc21)CO3` [Example 113] reads 0.046 nM; that for `CO[C@H]1/C=C/C[C@H](C)[C@@H](C)[S@@](=O)(NC(=O)COC2CCOCC2)=NC(=O)c2ccc3c(c2)N(C[C@@H]2CC[C@H]21)C[C@@]1(CCCc2cc(Cl)ccc21)CO3` [Example 108], 0.1 nM; that for `CO[C@H]1/C=C/C[C@H](C)C[S@@](=O)(NC(=O)N[C@H]2[C@@H]3COC[C@@H]32)=NC(=O)c2ccc3c(c2)N(C[C@@H]2CC[C@H]21)C[C@@]1(CCCc2cc(Cl)ccc21)CO3` [Example 206], 0.047 nM.
Regarding `COc1nnc(C)cc1C(=O)N[S@@]1(=O)=NC(=O)c2ccc3c(c2)N(C[C@@H]2CC[C@H]2[C@@H](OC)/C=C/C[C@H](C)C1)C[C@@]1(CCCc2cc(Cl)ccc21)CO3` [Example 460], the IC50 was 0.089 nM.
Still for that read-out and setting: the result for `C[C@@H]1[C@@H](C)C/C=C/[C@H](O)[C@@H]2CC[C@H]2CN2C[C@@]3(CCCc4cc(Cl)ccc43)COc3ccc(cc32)C(=O)N=[S@]1(=O)NC(=O)c1cc2n(c1)CC(C)(CN1CCOCC1)OC2` (stereo partly shown) [Example 259] reads 0.098 nM; that for `COCC(=O)NS1(=O)=NC(=O)c2ccc3c(c2)N(C[C@@H]2CC[C@H]2[C@@H](OC)/C=C/CCC1)C[C@@]1(CCCc2cc(Cl)ccc21)CO3` (single isomer, unassigned) [Example 8], 0.7 nM; that for `COc1nn(C)cc1C(=O)NS1(=O)=NC(=O)c2ccc3c(c2)N(C[C@@H]2CC[C@H]2[C@@H](OC)/C=C/C[C@H](C)C1)C[C@@]1(CCCc2cc(Cl)ccc21)CO3` (single isomer, unassigned) [Example 388], 1.06 nM.
In the case of `C[C@@H]1[C@@H](C)C/C=C/[C@H](O)[C@@H]2CC[C@H]2CN2C[C@@]3(CCCc4cc(Cl)ccc43)COc3ccc(cc32)C(=O)N=[S@]1(=O)NC(=O)c1cc2n(c1)CC(C)(C)OC2` [Example 264], the IC50 is 0.263 nM.
Same read-out and setting: the result for `CO[C@H]1/C=C/C[C@H](C)C[S@@](=O)(NC(=O)N2CC(Oc3ccccn3)C2)=NC(=O)c2ccc3c(c2)N(C[C@@H]2CC[C@H]21)C[C@@]1(CCCc2cc(Cl)ccc21)CO3` [Example 463] reads 0.219 nM; that for `COCC1(C)Cn2cc(C(=O)N[S@@]3(=O)=NC(=O)c4ccc5c(c4)N(C[C@@H]4CC[C@H]4[C@@H](O)/C=C/C[C@H](C)[C@H]3C)C[C@@]3(CCCc4cc(Cl)ccc43)CO5)cc2CO1` (stereo partly shown) [Example 255], 0.096 nM.
The same measure, in the same setting: next, `CO[C@H]1/C=C/C[C@H](C)[C@@H](C)[S@](N)(=O)=NC(=O)c2ccc3c(c2)N(C[C@@H]2CC[C@H]21)C[C@@]1(CCCc2cc(Cl)ccc21)CO3` (single isomer, unassigned) [Example 110]: 2.63 nM; `CO[C@H]1/C=C/C[C@H](C)C[S@@](=O)(NC(=O)N[C@H]2C[C@H]2F)=NC(=O)c2ccc3c(c2)N(C[C@@H]2CC[C@H]21)C[C@@]1(CCCc2cc(Cl)ccc21)CO3` [Example 115]: 0.068 nM; `COCCO[C@H]1/C=C/[C@H](OC)[C@@H]2CC[C@H]2CN2C[C@@]3(CCCc4cc(Cl)ccc43)COc3ccc(cc32)C(=O)N=[S@](=O)(NC(=O)c2cn(C)nc2OC)C[C@H]1C` [Example 291]: 0.039 nM.
For `COC[C@H]1C[C@H](NC(=O)N[S@@]2(=O)=NC(=O)c3ccc4c(c3)N(C[C@@H]3CC[C@H]3[C@@H](OC)/C=C/C[C@H](C)C2)C[C@@]2(CCCc3cc(Cl)ccc32)CO4)C1` [Example 200], the IC50 was 0.064 nM.
Still for that read-out and setting: next, `CO[C@H]1/C=C/C[C@H](C)[C@@H](C)[S@@](=O)(NC(=O)COC2COC2)=NC(=O)c2ccc3c(c2)N(C[C@@H]2CC[C@H]21)C[C@@]1(CCCc2cc(Cl)ccc21)CO3` [Example 407]: 0.113 nM.
The same measure, in the same setting: next, `CO[C@H]1/C=C/C[C@H](C)C[S@@](=O)(NC(=O)COC2CCOCC2)=NC(=O)c2ccc3c(c2)N(C[C@@H]2CC[C@H]21)C[C@@]1(CCCc2cc(Cl)ccc21)CO3` [Example 106]: 0.1 nM.

The test system of the next test is SKBR3 cells. Description: SKBR3 Cell Viability Assay (CellTiter Glo). The format is cell-based. To be noted: 72 hours, CellTiter Glo luminescence, read-out: MCL-1 CV SKBR3 EC50. The procedure: SKBR3 Cell Viability Assay Materials
SKBR3 Cells (ATCC HTB-30) were obtained from ATCC (Manassas, Va.) and cultured in McCoy 5A's medium (ATCC 30-2007)+10% fetal bovine serum (SH30071.03, HyClone, Pittsburgh, Pa.) plus 1× Penicillin-Streptomycin L-glutamine (Corning 30-009-C1, Corning, N.Y.)).
The cell viability assay was conducted in a 384-well tissue culture plate (Grenier 781086, Monroe, N.C.) in a total volume of 70 μL. Test compounds were prepared in 1,000×, serially diluted, and pre-spotted into 384-well tissue culture plate by Echo 555 Liquid Handler (Labcyte Inc., San Jose, Calif.). Seventy μl of 6,000 SKBR3 cells were dispensed into each well of the plate and incubated at 37° C. with 5% CO2 for 72 hours. At the end of incubation, 2× CellTiter Glo (CTG) reagents (1 part buffer with 2 parts substrate) (Promega, Madison, Wis.) were prepared, and the plate and the reagent were equilibrated to room temperature for 30 minutes. CTG reagent was added to each plate by Biomek FX at 20 μL/well with 5 times pipetting and mixing to induce cell lysis. Luminescence was read by Envision multimode reader (PerkinElmer). […] Percent inhibition was calculated as followed: % Inhibition=100%*(Well−Neg)/(Pos−Neg) Neg, negative control, DMSO Pos, positive control, 10 μM Puromycin
Turning to `CCC(=O)N[S@@]1(=O)=NC(=O)c2ccc3c(c2)N(C[C@@H]2CC[C@H]2[C@@H](OC)CCCCC1)C[C@@]1(CCCc2ccccc21)CO3` [Example 16], the EC50 is 10000 nM.

For orientation: IC50 means the concentration at which inhibition is half-maximal. As usually defined, the EC50 is the midpoint of the concentration-response curve.
